Test results: patent US8158606B2, “β-L-2′-deoxynucleosides for the treatment of resistant HBV strains and combination therapies” (priority 2002, dated 2012)
Several values for one entry are separate records, joined by “and”; a condition that tells them apart may be missing. Identical values can stand only once. Counter-ions that a name gives are not always drawn. Like-named read-outs stand apart in the source and are kept apart here.

Assays:
[1] = dival-L-dC 10 mg/kg oral
From the text: The drug was quantitated in plasma and in urine using HPLC analysis.

[2] = assay type: in vivo, cynomolgus monkey (Macaca fascicularis)
From the text: The drug was quantitated in plasma and urine with a liquid chromatography-mass spectrometry (LC-MS) technique.

[3] = Log P study, octanol-1 / phosphate buffer
Description: To 1 mL of this solution, 1 mL of octanol-1 (B) saturated with 0.02 M phosphate buffer solution (A) was added. The resultant mixture was shaken and centrifuged; three samples from each phase was collected and analyzed by HPLC, as shown in Table 10.
The solution was then saturated with octanol-1 (B). To 1 mL of this solution, 1 mL of octanol-1 (B) saturated with 0.02 M phosphate buffer solution (A) was added. The resultant mixture was shaken and centrifuged; three samples from each phase was collected and analyzed by HPLC, as shown in Table 11.

[4] = Bioavailability of the prodrugs of L-dC; conditions: oral administration to monkeys
[5] = Solubility study in water (HPLC calibration); conditions: listed as 3′,5′-divalinyl ester hydrochloride of β-L-dC, hydrochloride
[6] = assay type: physicochemical; conditions: octanol-1 (B) / MilliQ water pH 6.5 (A′), Study 1 and Study 2, listed as L-dC-3′,5′-divalinyl ester hydrochloride
Description: (§1) To 1 mL of this solution, 1 mL of octanol-1 (B) saturated with MilliQ water (A′) was added.
as §1

human plasma proteins = assay type: in vitro ADME; conditions: ex vivo, ultrafiltration
[7] = Stability study in buffer at pH 7.4, 7.20, 4.5 and 1.2; assay type: physicochemical; conditions: no other compounds detected up to 48 hours
[8] = In vitro stability of dival-L-dC in human plasma; assay type: in vitro ADME; conditions: 37° C.
From the text: Two additional metabolites (β-L-2′-deoxycytidine-5′-valine ester and β-L-2′-deoxycytidine-valine ester) were also noted.

[9] = during the log P experiment in phosphate buffer

CC(C)[C@H](N)C(=O)OC[C@@H]1O[C@H](n2ccc(N)nc2=O)C[C@H]1OC(=O)[C@@H](N)C(C)C [3′5′-dival-L-dC, 3,5′-L-Valine ester of 2′-deoxy-β-L-cytidine hydrochloride]
L-dC as share of drug excreted in the urine [1]: ~89%
administered oral dose recovered in urine after 72 hours [1]: 31%
administered oral dose recovered in urine within 8 hours [1]: Approximately 26%
renal excretion of L-dU, share of the recovered dose [1]: approximately 10%
dival-L-dC in plasma at 15 minutes post-dose ([1]; detected in only one animal): 0.35 µM
Cmax of val-L-dC (unchanged prodrug) ([2]; Oral (10 mg/kg dival-L-dC)): Not detected
L-dC as share of drug excreted in the urine ([2]; dival-L-dC 10 mg/kg IV): ~93%
administered dose excreted in urine within 2 hours ([2]; dival-L-dC 10 mg/kg IV): 58±3%
renal excretion of L-dU, share of total recovered dose ([2]; dival-L-dC 10 mg/kg IV): approximately 2.5%
renal excretion of β-L-2′-deoxycytidine-5′-valine ester, share of total recovered dose ([2]; dival-L-dC 10 mg/kg IV): ~3.7%
β-L-2′-deoxycytidine-5′-valine ester in plasma at 15 minutes ([2]; dival-L-dC 10 mg/kg IV): 3.23 µM
β-L-2′-deoxycytidine-5′-valine ester in plasma by 2 hours ([2]; dival-L-dC 10 mg/kg IV): 0.08 µM
dival-L-dC in plasma at 30 minutes ([2]; dival-L-dC 10 mg/kg IV, 1 of 3 animals): 0.36 µM
dival-L-dC in urine, share of the recovered dose ([2]; dival-L-dC 10 mg/kg IV, one of three animals at 2 hours): approximately 0.15%
L-dC as share of drug excreted in the urine ([2]; dival-L-dC 10 mg/kg oral): ~95%
L-dC as share of plasma drug levels at Cmax ([2]; dival-L-dC 10 mg/kg oral): > 99%
administered oral dose recovered in urine after 72 hours ([2]; dival-L-dC 10 mg/kg oral): 39±8%
administered oral dose recovered in urine within 4 hours ([2]; dival-L-dC 10 mg/kg oral): ~31±8%
renal excretion of L-dU, share of total recovered dose ([2]; dival-L-dC 10 mg/kg oral): approximately 2.5%
renal excretion of β-L-2′-deoxycytidine-5′-valine ester, share of total recovered dose ([2]; dival-L-dC 10 mg/kg oral): ~0.2%
L-dU concentration in plasma at 8 hours ([2]; dival-L-dC 10 mg/kg oral, one animal): 0.39 µM
conversion of the divaline ester detected in the aqueous phase [3, 9]: 50%
conversion of the divaline ester detected in the organic phase [3, 9]: 14%
log P (octanol/water) ([3]; octanol-1 / 0.02 M phosphate buffer pH 7.2): −0.86
share of absorbed ester converted to L-dC [4]: more than 99%
share of the oral dose absorbed [4]: approximately 73%
Solubility (mol/L) [5]: more than 2.5 mol/L
P′ (B/A′) [6]: 1.80 × 10^−3 and 1.77 × 10^−3
binding to human plasma proteins (human plasma proteins): 13.3%
stability in words [7]: fully stable
in vitro half-life in human plasma [8]: approximately 39 min
